Values quoted from earlier work in paper PMC12305721 (International Journal of Pharmaceutics: X, 2025).

Set-up: method as in Song et al., 2016
Conditions: reduced from −43.19 °C; ref Song et al., 2016

Tg of PSAs after incorporation of Azone: −52.92 °C
Compound: CCCCCCCCCCCCN1CCCCCC1=O [Azone]
